Data: patent US20230340011A1 (Asteroid Therapeutics, priority 2022, published 2023)
Like-named read-outs stand apart in the source and are kept apart here.

Tests used:
LXRβ = LXRβ (Homo sapiens (Human), UniProt P55055); assay: In vitro assay LXRβ: PathHunter NHR CHO cells, LXRβ / Steroid Receptor Co-activator Peptide enzyme fragment complementation; format: cell-based
In short: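 Enzyme fragment complementation read-out: CHO cells stably expressing ProLink-tagged full-length human LXRβ plus nuclear enzyme acceptor–SRCP fusion, seeded and held overnight at 37° C. Medium with charcoal-dextran filtered serum; final vehicle 1%. Chemiluminescence measured after signal generation.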

SREBP-2 = SREBP-2 (Homo sapiens (Human), UniProt Q12772); assay: In vitro assay SREBP-2: PathHunter U2OS SREBP-2 Nuclear Translocation Cell Line, U18666A-stimulated; format: cell-based
[1] = PathHunter NHR CHO cells, full-length human LXRβ and SRCP, chemiluminescent signal, read-out: LXRβ PPI
[2] = PathHunter U2OS SREBP-2 nuclear translocation cells, U18666A 10 μM, overnight (16 hours)

Sequence of LXRβ (P55055 whole entry, the tested form may be a part): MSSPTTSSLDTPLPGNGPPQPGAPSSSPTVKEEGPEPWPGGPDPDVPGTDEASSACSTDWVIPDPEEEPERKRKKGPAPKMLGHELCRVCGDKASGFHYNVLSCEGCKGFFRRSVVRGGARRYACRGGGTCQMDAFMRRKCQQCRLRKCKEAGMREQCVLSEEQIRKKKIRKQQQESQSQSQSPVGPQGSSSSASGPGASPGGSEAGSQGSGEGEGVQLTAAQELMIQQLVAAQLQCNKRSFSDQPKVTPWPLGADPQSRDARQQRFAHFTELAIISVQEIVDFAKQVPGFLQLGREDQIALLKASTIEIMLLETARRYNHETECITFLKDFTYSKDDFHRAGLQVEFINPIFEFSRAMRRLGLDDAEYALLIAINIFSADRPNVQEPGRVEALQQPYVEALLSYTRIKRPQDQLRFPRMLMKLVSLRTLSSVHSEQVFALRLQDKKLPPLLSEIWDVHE

Row | Compound | EC50 (LXRβ; [1]) [nM] | IC50 (SREBP-2; [2]) [nM] | EC50 (LXRβ) [nM] | IC50 (SREBP-2) [nM]
1 | COC(=O)N1CCN(C(=O)CC[C@@H](C)[C@H]2CC[C@H]3[C@@H]4CC=C5C[C@](O)(C(F)(F)F)CC[C@]5(C)[C@H]4CC[C@]23C)CC1 [Example 285, methyl 4-((R)-4-((3S,8S,9S,10R,13R,14S,17R)-3-hydroxy-10,13-dimethyl-3-(trifluoromethyl)-2,3,4,7,8,9,10,11,12,13,14,15,16,17-tetradecahydro-1H-cyclopenta[a]phenanthren-17-yl)pentanoyl)piperazine-1-carboxylate] | > 10000 | 1000 to 10000 | – | –
2 | C[C@H](CCC(=O)N1CCC(OC(=O)N(C)C)CC1)[C@H]1CC[C@H]2[C@@H]3CC=C4C[C@@H](O)CC[C@]4(C)[C@H]3CC[C@]12C [Example 286, 1-((R)-4-((3S,8S,9S,10R,13R,14S,17R)-3-hydroxy-10,13-dimethyl-2,3,4,7,8,9,10,11,12,13,14,15,16,17-tetradecahydro-1H-cyclopenta[a]phenanthren-17-yl)pentanoyl)piperidin-4-yl dimethylcarbamate] | > 10000 | < 250 | – | –
3 | C[C@H](CCC(=O)N1CCC(N(C)C(=O)c2ccncc2)CC1)[C@H]1CC[C@H]2[C@@H]3CC=C4C[C@@H](O)CC[C@]4(C)[C@H]3CC[C@]12C [Example 288, N-(1-((R)-4-((3S,8S,9S,10R,13R,14S,17R)-3-hydroxy-10,13-dimethyl-2,3,4,7,8,9,10,11,12,13,14,15,16,17-tetradecahydro-1H-cyclopenta[a]phenanthren-17-yl)pentanoyl)piperidin-4-yl)-N-methylisonicotinamide] | > 10000 | 250 to 1000 | – | –
4 | C[C@H](CCC(=O)N1CCC(N(C)S(C)(=O)=O)CC1)[C@H]1CC[C@H]2[C@@H]3CC=C4C[C@@H](O)CC[C@]4(C)[C@H]3CC[C@]12C [Example 289, N-{1-[(4R)-4-[(1R,3aS,3bS,7S,9aR,9bS,11aR)-7-hydroxy-9a,11a-dimethyl-1H,2H,3H,3aH,3bH,4H,6H,7H,8H,9H,9aH,9bH,10H,11H,11aH-cyclopenta[a]phenanthren-1-yl]pentanoyl]piperidin-4-yl}-N-methylmethanesulfonamide] | > 10000 | 250 to 1000 | – | –
5 | C[C@H](CCC(=O)N1CCC(S(=O)(=O)N(C)C)CC1)[C@H]1CC[C@H]2[C@@H]3CC=C4C[C@@H](O)CC[C@]4(C)[C@H]3CC[C@]12C [Example 290, 1-((R)-4-((3S,8S,9S,10R,13R,14S,17R)-3-hydroxy-10,13-dimethyl-2,3,4,7,8,9,10,11,12,13,14,15,16,17-tetradecahydro-1H-cyclopenta[a]phenanthren-17-yl)pentanoyl)-N,N-dimethylpiperidine-4-sulfonamide] | > 10000 | < 250 | – | –
6 | Cc1noc(C(=O)N2CCN(C(=O)CC[C@@H](C)[C@H]3CC[C@H]4[C@@H]5CC=C6C[C@@H](O)CC[C@]6(C)[C@H]5CC[C@]34C)CC2)n1 [Example 292, (R)-4-((3S,8S,9S,10R,13R,14S,17R)-3-hydroxy-10,13-dimethyl-2,3,4,7,8,9,10,11,12,13,14,15,16,17-tetradecahydro-1H-cyclopenta[a]phenanthren-17-yl)-1-(4-(3-methyl-1,2,4-oxadiazole-5-carbonyl)piperazin-1-yl)pentan-1-one] | > 10000 | < 250 | – | –
7 | C[C@H](CCC(=O)N1CCN(c2cccnn2)CC1)[C@H]1CC[C@H]2[C@@H]3CC=C4C[C@@H](O)CC[C@]4(C)[C@H]3CC[C@]12C [Example 303, (4R)-4-[(1R,3aS,3bS,7S,9aR,9bS,11aR)-7-hydroxy-9a,11a-dimethyl-1H,2H,3H,3aH,3bH,4H,6H,7H,8H,9H,9aH,9bH,10H,11H,11aH-cyclopenta[a]phenanthren-1-yl]-1-[4-(pyridazin-3-yl)piperazin-1-yl]pentan-1-one] | > 10000 | < 250 | – | –
8 | C[C@H](CCC(=O)N1CCN(c2cnccn2)CC1)[C@H]1CC[C@H]2[C@@H]3CC=C4C[C@@H](O)CC[C@]4(C)[C@H]3CC[C@]12C [Example 304, (R)-4-((3S,8S,9S,10R,13R,14S,17R)-3-hydroxy-10,13-dimethyl-2,3,4,7,8,9,10,11,12,13,14,15,16,17-tetradecahydro-1H-cyclopenta[a]phenanthren-17-yl)-1-(4-(pyrazin-2-yl)piperazin-1-yl)pentan-1-one] | > 10000 | < 250 | – | –
9 | C[C@H](CCC(=O)N1CCN(C(=O)c2cn(C)nn2)CC1)[C@H]1CC[C@H]2[C@@H]3CC=C4C[C@@H](O)CC[C@]4(C)[C@H]3CC[C@]12C [Example 308, (R)-4-((3S,8S,9S,10R,13R,14S,17R)-3-hydroxy-10,13-dimethyl-2,3,4,7,8,9,10,11,12,13,14,15,16,17-tetradecahydro-1H-cyclopenta[a]phenanthren-17-yl)-1-(4-(1-methyl-1H-1,2,3-triazole-4-carbonyl)piperazin-1-yl)pentan-1-one] | > 10000 | < 250 | – | –
10 | C[C@H](CCC(=O)N1CCN(C(=O)c2cnn(C)c2)CC1)[C@H]1CC[C@H]2[C@@H]3CC=C4C[C@@H](O)CC[C@]4(C)[C@H]3CC[C@]12C [Example 309, (4R)-4-[(1R,3aS,3bS,7S,9aR,9bS,11aR)-7-hydroxy-9a,11a-dimethyl-1H,2H,3H,3aH,3bH,4H,6H,7H,8H,9H,9aH,9bH,10H,11H,11aH-cyclopenta[a]phenanthren-1-yl]-1-[4-(1-methyl-1H-pyrazole-4-carbonyl)piperazin-1-yl]pentan-1-one] | > 10000 | < 250 | – | –
11 | C[C@H](CCC(=O)N1CCN(C(=O)c2cn[nH]c2)CC1)[C@H]1CC[C@H]2[C@@H]3CC=C4C[C@@H](O)CC[C@]4(C)[C@H]3CC[C@]12C [Example 310, (R)-1-(4-(1H-pyrazole-4-carbonyl)piperazin-1-yl)-4-((3S,8S,9S,10R,13R,14S,17R)-3-hydroxy-10,13-dimethyl-2,3,4,7,8,9,10,11,12,13,14,15,16,17-tetradecahydro-1H-cyclopenta[a]phenanthren-17-yl)pentan-1-one] | > 10000 | < 250 | – | –
12 | C[C@H](CCC(=O)N1CCN(C(=O)c2ccns2)CC1)[C@H]1CC[C@H]2[C@@H]3CC=C4C[C@@H](O)CC[C@]4(C)[C@H]3CC[C@]12C [Example 311, (R)-4-((3S,8S,9S,10R,13R,14S,17R)-3-hydroxy-10,13-dimethyl-2,3,4,7,8,9,10,11,12,13,14,15,16,17-tetradecahydro-1H-cyclopenta[a]phenanthren-17-yl)-1-(4-(isothiazole-5-carbonyl)piperazin-1-yl)pentan-1-one] | > 10000 | < 250 | – | –
13 | C[C@H](CCC(=O)N1CCN(C(=O)c2cccnc2)CC1)[C@H]1CC[C@H]2[C@@H]3CC=C4C[C@@H](O)CC[C@]4(C)[C@H]3CC[C@]12C [Example 313, (4R)-4-[(1R,3aS,3bS,7S,9aR,9bS,11aR)-7-hydroxy-9a,11a-dimethyl-1H,2H,3H,3aH,3bH,4H,6H,7H,8H,9H,9aH,9bH,10H,11H,11aH-cyclopenta[a]phenanthren-1-yl]-1-[4-(pyridine-3-carbonyl)piperazin-1-yl]pentan-1-one] | – | – | > 10000 | < 250
